From US5420289A, “Substituted indole-, indene-, pyranoindole- and tetrahydrocarbazole-alkanoic acid derivatives as inhibitors of PLA2 and lipoxygenase” (American Home Products Corporation, priority 1993, dated 1995)
One block for each compound: values may come before it.

Experiments:
[1] = test system: paw edema induced by PLA2 from the diamond back cotton mouth snake (A. piscivorus piscivorus); experiment: in vivo PLA2 murine paw edema assay (Example 75); set-up: species or system mouse (male CD-1)
[2] = target: T1, human synovial fluid PLA2 (Homo sapiens, UniProt P14555); experiment: in vitro isolated phospholipase A2 assay, human synovial fluid PLA2 (Example 74); type: biochemical; set-up: inhibition / % Inhibition, HSF (human synovial fluid): dose or concentration left out as unconfirmed; conditions: for IC50: Table III, read-out: IC50 HSF (human synovial fluid); for inhibition: read-out: % Inhibition, HSF (human synovial fluid)
T1 sequence (P14555 21-144): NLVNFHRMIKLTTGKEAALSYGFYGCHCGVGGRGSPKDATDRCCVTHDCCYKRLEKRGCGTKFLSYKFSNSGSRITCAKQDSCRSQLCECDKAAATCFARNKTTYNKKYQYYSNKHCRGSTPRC
Outline: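 Human synovial fluid PLA2 (purified) acts on ³H-arachidonate-labelled E. coli substrate, 10 minutes at 37° C with shaking; stopped with tetrahydrofuran. Released arachidonic acid is isolated on NH2 columns, eluted with tetrahydrofuran/2% acetic acid and quantitated by β-counting against a total-counts sample.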

[3] = test system: cyclooxygenase (PGE2 synthesis) in rat polymorphonuclear leukocytes (PMN); experiment: inhibition of PGE2 synthesis (cyclooxygenase) by rat glycogen-elicited PMN (Example 73); type: cell-based, rat (female Wistar); conditions: Leukocyte, * (negative) denotes a potentiation; for inhibition at 500 µM: at 0.5 mM; for inhibition at 10000 µM: at 10 mM, read-out: % Inhibition (PGE2 synthesis)
Protocol: (§1) Rat polymorphonuclear leukocytes (PMNs) are obtained from female Wistar rats (150-200 g) which receive an injection of 6% glycogen (10 ml i.p.). Rats are sacrificed 18-24 hours post injection by CO2 asphyxiation and the elicited cells are harvested by peritoneal lavage using physiological saline (0.9% NaC1). The exudate is centrifuged at 400 ×g for 10 minutes. The supernatant fluid is discarded and the cell pellet is resuspended to a concentration of 2.0×10^7 cells/mL in HBSS containing Ca^++ and Mg^++ and 10 mM L-cysteine.
(§2) To 1 mL aliquots of cell suspension, test drugs or vehicle are added, then preincubated at 37° C. for 10 minutes. A23187 (1 mM), [^3 H]-AA (3.0 mCi/mL) and unlabeled AA (1 mM) are then added and the samples are further incubated for 10 minutes. The reaction is terminated by centrifugation and pelleting cells. Supernatants are then analyzed by HPLC analysis on a 15 cm×4.6 mm ID supelcosil LC-18 (Supelco)(3M) column, using a two solvent system at a flow rate of 1.4 mL total flow as follows:
In this assay, the procedure of Example 72 is carried out as described. However, in order to determine cyclooxygenase activity, the samples are cochromatographed with authentic reference [^3 H]-PGE2.
The results be calculated as in Example 72 and presented below: […]

[4] = test system: synthesis of LTB4 by rat glycogen-elicited polymorphonuclear leukocytes (PMN); experiment: inhibition of LTB4 synthesis by rat glycogen-elicited PMN (Example 72); type: cell-based, rat (female Wistar); conditions: Leukocyte; for inhibition at 10000 µM: at 10 mM, negative number denotes potentiation
From the text: This is especially true with respect to 5,12-diHETE, which is also denoted as LTB4 lsee Ford-Hitchinson, J. Roy. Soc. Med., 74, 831 (1981)]. Compounds which inhibit the PLA2 -mediated release of arachidonic acid thereby effectively prevent the oxidation of arachidonic acid to the various leukotriene products via the lipoxygenase cascade. Accordingly, the specificity of action of PLA2 inhibitors can be determined by the activity of test compounds in this assay, which measures the ability of compounds to inhibit the synthesis of LTB4 by rat glycogen-elicited polymorphonuclear leukocytes (PMN) in the presence of exogenous substrate.
The assay is carded out as follows:
as §1, §2
Gradient: (system is equilibrated with Solvent A)
Percent solvent changes are accomplished in a linear fashion.
Injections: […] of each supernatant is injected directly onto column and ^3 H arachidonic acid metabolites are monitored using an on-line radioactivity detector (Ramona, IN/U S, Fairfield, NJ).
Standards: 10^4 -2.0×10^4 dpm of eicosanoids of interest are injected in […] EtOH cocktail.
Co-chromatography with standard [^3 H] leukotriene B4 (LTB4) in medium of stimulated PMN exposed to drug is compared to that found in medium of stimulated cells exposed to no drug, generating percent inhibition.
Results are expressed as percent inhibition at a given compound dose or as an IC50 value.

[5] = target: T2, human platelet PLA2 (Homo sapiens, UniProt P14555); experiment: in vitro isolated phospholipase A2 assay, human platelet PLA2 (Example 74); type: biochemical; set-up: dose or concentration left out as unconfirmed; conditions: read-out: % Inhibition, HP (human platelet)
T2 construct: Semi-purified human platelet acid extract PLA2; from tissue; host or cells: human platelets (semi-purified acid extract)
T2 sequence (P14555 21-144): T1 sequence (P14555 21-144)
Protocol: The compounds of the invention are tested in an in vitro isolated phospholipase A2 assay to determine the ability of the test compounds to inhibit the release of arachidonic acid from an arachidonic acid-containing substrate by the action of phospholipase A2 enzyme from human and non-human sources.
This assay is carried out as follows:
Into a 15 mL polypropylene tube are added the following:
^6 Two human PLA2 enzymes are used:
a) Semi-purified human platelet acid extract PLA2 (in 10 mM
sodium acetate buffer, pH 4.5). Remove protein precipitate by
centrifugation at about 2200 rpm for 10 minutes.
Incubate the 100mL reaction mixture for 10 minutes at 37° C. in a shaking water bath. The reaction is terminated by the addition of 2 mL tetrahydrofuran, followed by vortexlag. NH2 columns (100 mg/mL--Analytichem International) are conditioned with 0.5 mL tetrahydrofuran followed by 0.5 mL tetrahydrofuran/water (2 mL:0.1 mL, v/v).
The sample is loaded onto the columns and slowly drawn through them. The hydrolyzed arachidonic acid retained in the columns is eluted therefrom with 1 mL tetrahydrofuran/glacial acetic acid (2%). The arachidonic acid is transferred to scintillation vials and quantitated by b-counting analysis. A "total counts" sample is prepared by pipetting […] ^3 H-arachidonate E. coli directly into a scintillation vial to which is added 1 mL tetrahydrofuran. 10 mL aquasol (scintillation cocktail) is added to all samples. [formula]

[6] = test system: paw edema induced by PLA2 from the diamond back cotton mouth snake (A. piscivorus piscivorus); experiment: in vivo PLA2 murine paw edema assay (Example 75); set-up: species or system mouse (male CD-1); conditions: for ED50 at +10 min.: p.o., at +10 min after PLA2, standard drugs
Protocol: The ability of the compounds of the invention to inhibit paw edema induced by the exogenous administration of PLA2 is measured in the in vivo PLA2 murine paw edema assay.
The assay is carried out as follows:
Non-fasted, male CD-1 mice (8 weeks old; 31-36 grams) are placed in plastic boxes in groups of six. The right hind paw volume is measured using mercury plethysmography (zero time). Compounds are dosed orally (0.5 mL of 0.5% Tween-80) 1 or 3 hours prior to PLA2 injection or intravenously (0.2 mL in 0.3% dimethylsulfoxide/saline) 3 minutes prior to PLA2 injection. A solution of purified PLA2, from the diamond back cotton mouth snake (A. piscivorus piscivorus) is prepared in saline at a concentration of 6 mg/mL. Fifty (50) uL (0.3 mg) of this PLA2 solution is injected subcutaneously into the right hind paw with a plastic 1 mL plastic syringe (27 gauge, "1" needle). Paw volume of the injected paw is measured again at 10 minutes, 30 minutes and 60 minutes after PLA2 injection. Animals are euthanized with CO2 at the completion of the study.
The paw edema is calculated by subtracting the zero time volume from the volume recorded at each time period. Mean paw edema for each treatment group is then calculated and expressed as (mL±S.E.). Drug effects are expressed as a percent change from control (vehicle) values. Statistical significance is determined by a one-way analysis of variance with LSD comparison to control (p<0.05). ED50 's are determined using repression analysis.

Compound: C[C@@H]1C[C@H]2[C@@H]3CCC4=CC(=O)C=C[C@]4(C)[C@@]3(F)[C@@H](O)C[C@]2(C)[C@@]1(O)C(=O)CO [Dexamethasone]
ED50 at +10 min. ([1]; p.o. 3 hr, at +10 min after PLA2): 10 mg/kg

Compound: COc1ccc2c(c1)c(CC(=O)O)c(C)n2C(=O)c1ccc(Cl)cc1 [indomethacin, reference compound]
IC50 [2]: 145 µM
% Change in Edema ([1]; 10 mg/kg p.o., 10 min): -32%
% Change in Edema ([1]; 10 mg/kg p.o., 30 min): -31%
% Change in Edema ([1]; 10 mg/kg p.o., 60 min): -42%

inhibition [2]: 3.8%
inhibition [5]: 90%
Compound: CC1=C(CC(=O)O)c2cc(OCc3ccc4ccccc4n3)ccc2C1=Cc1ccc(OCc2ccc3ccccc3n2)cc1 [Example 41, 2-Methyl-5-(2-quinolinylmethoxy)-1-[[4-(2-quinolinylmethoxy)phenyl]methylene]-1H-indene-3-acetic acid]
inhibition at 500 µM [3]: -21%
inhibition at 10000 µM [4]: 100%

inhibition [2]: 48%
inhibition [5]: 58%
Compound: CC1=C(CC(=O)O)c2cc(F)ccc2C1=Cc1ccc(OCc2ccc3ccccc3n2)cc1 [Example 4, 5-Fluoro-2-methyl-1-[[4-(2-quinolinylmethoxy)phenyl]methylene]-1H-indene-3-acetic acid]
inhibition at 500 µM [3]: 7%
inhibition at 500 µM ([4]; at 0.5 mM): 92%

Compound: CC1=C(CC(=O)O)c2cc(OCc3ccc4ccccc4n3)ccc2/C1=C\c1ccc(Cl)cc1 [Example 1, 3-[(4-Chlorophenyl)methylene]-[2-methyl-6-(2-quinolinylmethoxy)]-3H-indene-1-acetic acid]
inhibition at 10000 µM [3]: 81%
inhibition at 10000 µM [4]: 96%
IC50 [2]: 9.7 µM
% Change in Edema ([6]; 10 mg/kg i.v., 10 min): -6%
% Change in Edema ([6]; 10 mg/kg i.v., 30 min): -9%
% Change in Edema ([6]; 10 mg/kg i.v., 60 min): -40%
% Change in Edema ([6]; 100 mg/kg p.o., 10 min): +4%
% Change in Edema ([6]; 100 mg/kg p.o., 30 min): -27%
% Change in Edema ([6]; 100 mg/kg p.o., 60 min): -6%

Compound: COc1cccc2c1cc([N+](=O)[O-])c1c(C(=O)O)cc3c(c12)OCO3 [Aristolochic Acid, reference compound]
ED50 at +10 min. [6]: Not Active

Compound: CCCCCCOc1ccc2c(c1)c(CC(=O)O)c(C)n2Cc1ccc(Cl)cc1 [Example 19, 1-[(4-Chlorophenyl)methyl]-5-(hexyloxy)-2-methyl-1H-indole-3-acetic acid]
inhibition [2]: 45%
% Change in Edema ([1]; 30 mg/kg i.p., 30 min): -30%
% Change in Edema ([1]; 60 mg/kg i.p., 30 min): -34%
inhibition [5]: 71%

Compound: Luffarrellolide [reference compound]
ED50 at +10 min. [6]: Not Active

Compound: COc1ccc2cc([C@H](C)C(=O)O)ccc2c1 [Naproxen, reference compound]
ED50 at +10 min. [6]: 18 mg/kg

Compound: CSc1ccc(/C=C2/C(C)=C(CC(=O)O)c3cc(OCc4ccc5ccccc5n4)ccc32)cc1 [Example 2, 2-Methyl-3-[[4-(methylthio)phenyl]methylene]-6-(2-quinolinylmethoxy)-3H-indene-1-acetic acid]
inhibition at 10000 µM [3]: 92%
inhibition at 10000 µM [4]: 96%
IC50 [2]: 3.6 µM
% Change in Edema ([6]; 10 mg/kg i.v., 10 min): -39%
% Change in Edema ([6]; 10 mg/kg i.v., 30 min): -43%
% Change in Edema ([6]; 10 mg/kg i.v., 60 min): -37%
% Change in Edema ([6]; 100 mg/kg p.o., 10 min): -6%
% Change in Edema ([6]; 100 mg/kg p.o., 30 min): -22%
% Change in Edema ([6]; 100 mg/kg p.o., 60 min): +18%
